pIC50: −log10 of the molar value.
Target: T1, human plasma protein factor Xa (Homo sapiens, UniProt P00742)
T1 construct: measure proteolytic activity of the enzyme (factor Xa); purchased Haematologic Technologies (Essex Junction, Vt.); host or cells: human plasma
Experiment: Factor Xa IC50 determination: cleavage of paranitroanilide substrate S-2765 in 96-well plates
Type: biochemical
Settings: fXa 1 nM, S-2765 100 μM, Tris buffered saline pH 7.4, room temperature
Outline: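 Human plasma factor Xa (1 nM) preincubated 5 min at room temperature with inhibitor (0.01 nM–10 μM final) in Tris-buffered saline pH 7.4 with 5 mM CaCl2, 0.1% BSA, 5% DMSO. S-2765 at 100 μM final; hydrolysis at 405 nm over 2 min. IC50 from 4-parameter fit of initial velocities.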

T1 sequence (P00742 235-488 limits assumed): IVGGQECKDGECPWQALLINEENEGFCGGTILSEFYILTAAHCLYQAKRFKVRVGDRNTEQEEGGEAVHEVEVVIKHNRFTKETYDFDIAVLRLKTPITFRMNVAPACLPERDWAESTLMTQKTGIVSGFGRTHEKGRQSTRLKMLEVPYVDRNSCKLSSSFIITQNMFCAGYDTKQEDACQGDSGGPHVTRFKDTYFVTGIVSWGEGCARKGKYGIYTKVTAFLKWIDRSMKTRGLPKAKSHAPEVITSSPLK
T1 sequence (P00742 41-179 partner limits assumed): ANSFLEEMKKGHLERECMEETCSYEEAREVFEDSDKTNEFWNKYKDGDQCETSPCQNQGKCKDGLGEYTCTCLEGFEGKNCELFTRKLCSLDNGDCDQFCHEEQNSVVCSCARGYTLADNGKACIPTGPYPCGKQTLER

Structure (SMILES) | pIC50
CCN(CC)CCN(C)C(=O)c1ccc(-c2cc(CNC(=O)c3ccc(Cl)s3)on2)cc1 [Example 168, 5-Chloro-thiophene-2-carboxylic acid (3-{4-[(2-diethylamino-ethyl)-methyl-carbamoyl]-phenyl}-isoxazol-5-ylmethyl)-amide] | ≤ 6.30
CCOc1cc(C(=N)N2CCCC2)ccc1-c1cc(CNC(=O)c2ccc(Cl)s2)on1 [Example 124, 5-Chloro-thiophene-2-carboxylic acid {3-[2-ethoxy-4-(imino-pyrrolidin-1-yl-methyl)-phenyl]-isoxazol-5-ylmethyl}-amide] | ≥ 7.00
N=C(c1ccc(C2=NOC(CNC(=O)c3ccc(Cl)s3)C2)c(OC2CCCC2)c1)N1CCCC1 (stereo not drawn) [Example 114, 5-Chloro-thiophene-2-carboxylic acid {3-[2-cyclopentyloxy-4-(imino-pyrrolidin-1-yl-methyl)-phenyl]-4,5-dihydro-isoxazol-5-ylmethyl}-amide] | ≥ 7.00
CCN1CCC(c2cc(CNC(=O)c3ccc(Cl)s3)on2)CC1 [Example 177, 5-Chloro-thiophene-2-carboxylic acid [3-(1-ethyl-piperidin-4-yl)-isoxazol-5-ylmethyl]-amide] | ≤ 6.30
O=C(NCC1CC(c2ccc(-n3cccc(F)c3=O)cc2)=NO1)c1ccc(Cl)s1 (stereo not drawn) [Example 279, 5-Chloro-N-((3-(4-(3-fluoro-2-oxopyridin-1(2H)-yl)phenyl)-4,5-dihydroisoxazol-5-yl)methyl)thiophene-2-carboxamide] | ≥ 7.00
Cc1cnccc1Nc1ccc(C2=NOC(CNC(=O)c3ccc(Cl)s3)C2)cc1 (stereo not drawn) [Example 400, 5-Chloro-N-((3-(4-(3-methylpyridin-4-ylamino)phenyl)-4,5-dihydroisoxazol-5-yl)methyl)thiophene-2-carboxamide] | ≥ 7.00
CNC(=N)c1ccc(-c2nc(CNC(=O)c3ccc(Cl)s3)co2)cc1 [Example 348, N-((2-(4-(N-Methylcarbamimidoyl)phenyl)oxazol-4-yl)methyl)-5-chlorothiophene-2-carboxamide] | ≤ 6.30
CN1CCN=C1c1ccc(-n2cc(CNC(=O)c3ccc(Cl)s3)nn2)c(F)c1 [Example 324, 5-Chloro-N-((1-(2-fluoro-4-(1-methyl-4,5-dihydro-1H-imidazol-2-yl)phenyl)-1H-1,2,3-triazol-4-yl)methyl)thiophene-2-carboxamide] | ≥ 7.00
N=C(c1ccccc1)N1CCC(c2cc(CNC(=O)c3ccc(Cl)s3)on2)CC1 [Example 181, 5-Chloro-thiophene-2-carboxylic acid {3-[1-(imino-phenyl-methyl)-piperidin-4-yl]-isoxazol-5-ylmethyl}-amide] | ≤ 6.30
COC(=O)c1ccc(Nc2ccc(C3=NOC(CNC(=O)c4ccc(Cl)s4)C3)cc2)cc1 (stereo not drawn) [Example 262, 4-[4-(5-{[(5-Chloro-thiophene-2-carbonyl)-amino]-methyl}-4,5-dihydro-isoxazol-3-yl)-phenylamino]-benzoic acid methyl ester] | ≤ 6.30
CCN(CC)CCN(C)C(=O)c1ccc(C2=NOC(CNC(=O)c3ccc(Cl)s3)C2)cc1 (stereo not drawn) [Example 166, 5-Chloro-thiophene-2-carboxylic acid (3-{4-[(2-diethylamino-ethyl)-methyl-carbamoyl]-phenyl}-4,5-dihydro-isoxazol-5-ylmethyl)-amide] | ≥ 7.00
CCN(C)C(=N)c1ccc(-n2cc(CNC(=O)c3ccc(Cl)s3)nn2)cc1 [Example 314, N-((1-(4-(N-Ethyl-N-methylcarbamimidoyl)phenyl)-1H-1,2,3-triazol-4-yl)methyl)-5-chlorothiophene-2-carboxamide] | ≥ 7.00
Cc1ccn(-c2ccc(-n3cc(CNC(=O)c4ccc(Cl)s4)nn3)cc2)c(=O)c1 [Example 295, 5-Chloro-N-((1-(4-(4-methyl-2-oxopyridin-1(2H)-yl)phenyl)-1H-1,2,3-triazol-4-yl)methyl)thiophene-2-carboxamide] | ≥ 7.00
O=C(NCC1CC(c2ccc(Nc3ccccc3)cc2)=NO1)c1ccc(Cl)s1 (stereo not drawn) [Example 222, 5-Chloro-thiophene-2-carboxylic acid [3-(4-phenylamino-phenyl)-4,5-dihydro-isoxazol-5-ylmethyl]-amide] | ≤ 6.30
CN(C)C(=N)c1ccc(-n2cc(CNC(=O)c3ccc(Cl)s3)nn2)cc1 [Example 313, N-((1-(4-(N,N-Dimethylcarbamimidoyl)phenyl)-1H-1,2,3-triazol-4-yl)methyl)-5-chlorothiophene-2-carboxamide] | ≥ 7.00
CC(C)N1CCC(C2=NOC(CNC(=O)c3ccc(Cl)s3)C2)CC1 (stereo not drawn) [Example 171, 5-Chloro-thiophene-2-carboxylic acid [3-(1-isopropyl-piperidin-4-yl)-4,5-dihydro-isoxazol-5-ylmethyl]-amide] | ≤ 6.30
O=C(NCC1CC(c2ccc(-c3ccccc3CN3CCCCC3)cc2)=NO1)c1ccc(Cl)s1 (stereo not drawn) [Example 196, 5-Chloro-thiophene-2-carboxylic acid [3-(2′-piperidin-1-ylmethyl-biphenyl-4-yl)-4,5-dihydro-isoxazol-5-ylmethyl]-amide] | ≥ 7.00

Structure (SMILES) | pIC50
O=C(NCC1CC(c2ccc(-c3ccccc3CN3CCOCC3)cc2)=NO1)c1ccc(Cl)s1 (stereo not drawn) [Example 197, 5-Chloro-thiophene-2-carboxylic acid [3-(2′-morpholin-4-ylmethyl-biphenyl-4-yl)-4,5-dihydro-isoxazol-5-ylmethyl]-amide] | ≥ 7.00
COc1ccc(CN(C)C)c(-c2ccc(C3=NOC(CNC(=O)c4ccc(Cl)s4)C3)cc2)c1 (stereo not drawn) [Example 202, 5-Chloro-thiophene-2-carboxylic acid [3-(2′-dimethylaminomethyl-5′-methoxy-biphenyl-4-yl)-4,5-dihydro-isoxazol-5-ylmethyl]-amide] | ≤ 6.30
CNC(=N)c1ccc(C2=NOC(C)(CNC(=O)c3ccc(Cl)s3)C2)cc1 (stereo not drawn) [Example 69, 5-Chloro-thiophene-2-carboxylic acid {5-methyl-3-[4-(N-methylcarbamimidoyl)-phenyl]-4,5-dihydro-isoxazol-5-ylmethyl}-amide] | ≥ 7.00
CN(C)CCN(C)C(=N)c1ccc(-c2cc(CN(C)C(=O)c3ccc(Cl)s3)on2)cc1 [Example 44, 5-Chloro-thiophene-2-carboxylic acid (3-{4-[N-(2-dimethylamino-ethyl)-N-methyl-carbamimidoyl]-phenyl}-isoxazol-5-ylmethyl)-methyl-amide] | ≤ 6.30
CN1CCN=C1c1ccc(-n2cc(CNC(=O)c3ccc(Cl)s3)nn2)cc1 [Example 312, 5-Chloro-N-((1-(4-(1-methyl-4,5-dihydro-1H-imidazol-2-yl)phenyl)-1H-1,2,3-triazol-4-yl)methyl)thiophene-2-carboxamide] | ≥ 7.00
CSc1cc(C(=N)N2CCCC2)ccc1C1=NOC(CNC(=O)c2ccc(Cl)s2)C1 (stereo not drawn) [Example 138, 5-Chloro-thiophene-2-carboxylic acid {3-[4-(imino-pyrrolidin-1-yl-methyl)-2-methylsulfanyl-phenyl]-4,5-dihydro-isoxazol-5-ylmethyl}-amide] | ≥ 7.00
Cc1cccn(-c2ccc(-n3cc(CNC(=O)c4ccc(Cl)s4)nn3)cc2)c1=O [Example 293, 5-Chloro-N-((1-(4-(3-methyl-2-oxopyridin-1(2H)-yl)phenyl)-1H-1,2,3-triazol-4-yl)methyl)thiophene-2-carboxamide] | ≥ 7.00
CN1CCN(c2ccc(-n3cc(CNC(=O)c4ccc(Cl)s4)nn3)cn2)CC1 [Example 391, 5-Chloro-N-((1-(6-(4-methylpiperazin-1-yl)pyridin-3-yl)-1H-1,2,3-triazol-4-yl)methyl)thiophene-2-carboxamide] | 6.30 to 7.00
Cc1cc(Nc2ccc(C3=NOC(CNC(=O)c4ccc(Cl)s4)C3)cc2)ccn1 (stereo not drawn) [Example 228, 5-Chloro-thiophene-2-carboxylic acid {3-[4-(2-methyl-pyridin-4-ylamino)-phenyl]-4,5-dihydro-isoxazol-5-ylmethyl}-amide] | ≤ 6.30
Cc1ccc(-c2cc(CNC(=O)c3ccc(Cl)s3)on2)cc1 [Example 149, 5-Chloro-thiophene-2-carboxylic acid (3-p-tolyl-isoxazol-5-ylmethyl)-amide] | ≤ 6.30
CSc1cc(C(=N)N2CCCC2)ccc1-c1cc(CNC(=O)c2ccc(Cl)s2)on1 [Example 142, 5-Chloro-thiophene-2-carboxylic acid {3-[4-(imino-pyrrolidin-1-yl-methyl)-2-methylsulfanyl-phenyl]-isoxazol-5-ylmethyl}-amide] | ≥ 7.00
CN(C)C(=N)c1ccc(C2=NOC(CNC(=O)c3ccc(Cl)s3)C2)c(OC2CCCC2)c1 (stereo not drawn) [Example 112, 5-Chloro-thiophene-2-carboxylic acid {3-[2-cyclopentyloxy-4-(N,N-dimethyl-carbamimidoyl)-phenyl]-4,5-dihydro-isoxazol-5-ylmethyl}-amide] | ≥ 7.00
CN(C)C(=N)c1ccc(C2=NOC(CNC(=O)c3ccc(Cl)s3)C2)cc1 (stereo not drawn) [Example 8, 5-Chloro-thiophene-2-carboxylic acid {3-[4-(N,N-dimethyl-carbamimidoyl)-phenyl]-4,5-dihydro-isoxazol-5-ylmethyl}-amide] | ≥ 7.00
CN1CCN=C1c1ccc(-c2cc(CNC(=O)c3ccc(Cl)s3)no2)cc1 [Example 331, 5-Chloro-N-((5-(4-(1-methyl-4,5-dihydro-1H-imidazol-2-yl)phenyl)isoxazol-3-yl)methyl)thiophene-2-carboxamide] | ≥ 7.00
N=C(c1ccc(-c2cc(CNC(=O)c3ccc(Cl)s3)no2)cc1)N1CCCCC1 [Example 333, 5-Chloro-N-((5-(4-(imino(piperidin-1-yl)methyl)phenyl)isoxazol-3-yl)methyl)thiophene-2-carboxamide] | ≥ 7.00
CN1CCN=C1c1ccc(C2=NOC(CNC(=O)c3ccc(Cl)s3)C2)c(N2CCCC2)c1 (stereo not drawn) [Example 79, 5-Chloro-thiophene-2-carboxylic acid {3-[4-(1-methyl-4,5-dihydro-1H-imidazol-2-yl)-2-pyrrolidin-1-yl-phenyl]-4,5-dihydro-isoxazol-5-ylmethyl}-amide] | 6.30 to 7.00
